Results on three compounds are retold here after US20110269790A1, “NOVEL THIENOPYRIDINES AS PHARMACOLOGICALLY ACTIVE AGENTS” (priority 2009, published 2011).

In data set [1] the target is T1, porcine pancreatic α-amylase (Sus scrofa, UniProt P00690).
T1 construct: α-amylase [EC 3.2.1.1) Type VI B: from porcine pancreas]; purchased Sigma Chemical Co., St Louis, Mo., USA; host or cells: porcine pancreas (natural source)
T1 sequence (P00690 16-511): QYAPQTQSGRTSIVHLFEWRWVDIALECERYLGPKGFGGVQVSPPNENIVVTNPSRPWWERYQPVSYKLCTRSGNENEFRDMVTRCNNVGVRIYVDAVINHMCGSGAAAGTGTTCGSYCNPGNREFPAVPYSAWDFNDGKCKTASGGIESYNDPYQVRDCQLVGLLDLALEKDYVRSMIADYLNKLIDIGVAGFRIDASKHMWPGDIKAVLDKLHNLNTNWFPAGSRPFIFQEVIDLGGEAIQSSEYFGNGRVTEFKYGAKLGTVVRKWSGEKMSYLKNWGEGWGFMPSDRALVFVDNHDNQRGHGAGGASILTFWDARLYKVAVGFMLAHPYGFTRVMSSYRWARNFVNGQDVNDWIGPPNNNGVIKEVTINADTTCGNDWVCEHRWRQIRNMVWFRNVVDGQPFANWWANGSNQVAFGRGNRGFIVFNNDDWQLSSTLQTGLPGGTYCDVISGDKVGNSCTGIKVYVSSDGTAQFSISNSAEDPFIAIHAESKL
Description: α-Amylase inhibition assay. The data set is classed as biochemical. Particulars: for Maltose released: a/b marks the respective control (Control-1 2.147, Control-2 3.429); for inhibition at 10000 µg/mL (stock): 0.05 h. An excerpt: (§1) Chemicals: α-Glucosidase [(EC 3.2.1.20) Type I: from bakers yeast], rat intestinal acetone powder (as a source of crude intestinal α-glucosidase), α-amylase [EC 3.2.1.1) Type VI B: from porcine pancreas], p-nitrophenyl α-D-glucopyranoside, 3,5-dinitro salicylic acid, soluble potato starch and 1-deoxyrojirimycine, were purchased from Sigma Chemical Co., St Louis, Mo., USA. Other chemicals of analytical grade were procured from indigenous manufacturers.
a-Amylase Inhibition Assay: The assay method was adopted from Ali et al. (2006) and modified accordingly to suite microplate reading. In brief, 40 μL of test samples (10 mg/mL DMSO) were reconstituted in 160 μL of 20 mM phosphate buffer (pH 6.9) containing 6.7 mM sodium chloride in 2 mL Eppendorf tubes and incubated with 200 μL of porcine pancreatic α-amylase) (4 U/mL prepared in ice cold distilled water) for 5 min. The reaction was started by the addition of 400-μL soluble potato starch solution (0.5% w/v in 20 mM phosphate buffer, pH 6.9). Exactly 3 min after incubation, 400 μL DNS color reagent (1.0 g of 3,5-dinitrosalicylic acid, 30 g of sodium potassium tartrate and 20 mL of 2 N NaOH to a final volume of 100 mL in distilled water) was added. Closed tubes were placed in a water bath (85-90° C.) for 10 min to develop color and cooled thereafter. 50 μL of reaction mixtures was diluted with 175 μL of distilled water in a 96-well microplate. α-Amylase activity was determined by measuring the absorbance of the mixture at 540 nm spectrophotometrically as above. Individual blanks were prepared to correct for the background absorbance due to test samples. In this case DNS solution was added in tubes before addition of substrate. The percentage inhibition of enzyme activity was calculated as above. All the tests were run in duplicate in this assay.

Another data set deals with T2, yeast α-glucosidase (Saccharomyces cerevisiae, UniProt P53341).
T2 construct: α-Glucosidase [(EC 3.2.1.20) Type I: from bakers yeast]
Put plainly: In-vitro yeast α-glucosidase inhibition assay. The data set is classed as biochemical, bakers yeast.
Excerpt: as §1
In-vitro a-Glucosidase Inhibition Assay: Yeast and intestinal a-glucosidase inhibitory activities were determined as per reported methods (Babu et al., 2004; Mc Dougall et al., 2005). Rat intestinal acetone powder in normal saline (100% w/v) was sonicated properly and the supernatant was used as a source of crude intestinal a-glucosidase after centrifugation. In brief, 20 μl, of test samples (100 mg/ml DMSO solution) were reconstituted in 100 μl of 100 mM-Phosphate buffer (pH 6.8) in a 96-well microplate and incubated with 50 μl yeast a-glucosidase (0.76 μ/ml in same buffer) or crude intestinal a-glucosidase for 5 min before 50-μl substrate (5 mM, […] prepared in same buffer) was added. Release of p-nitrophenyol was measured at 405 nm spectrophotometrically (Spectra Mas Plus 384, Molecular Device corporation, Sunnyvale, Calif., USA) 5 min after incubation with substrate, individual blank for test samples were prepared to correct background absorbance where the substrate was replaced with 50 μl of buffer. The control sample contained 20 μl DMSO in place of test samples. The percentage of enzyme inhibition was calculated as (A−B/A)×100 where A is represents the absorbance of the control without test samples, and B represents the absorbance in the presence of test samples. […] The IC50 values were calculated by applying logarithmic regression analysis from the mean inhibitory values.

The next data set has as its system A549 (Lung cancer). Put plainly: MTT assay, A549. Particulars: MTT, 48 hrs; for IC50: Homo sapiens, A549, read-out: A549 IC50. The data set is classed as cell-based. The protocol:
A431 (Skin cancer), Colo-205 (Colon cancer), A549 (Lung cancer) cell lines were obtained from National Center for Cell science (NCCS), Pune, India. DMEM (Dulbeccos Modified Eagles Medium), MTT [3-(4,5-dimethylthiazol-2-yl)-2,5-diphenyl tetrazolium bromide], Trypsin, EDTA were purchased from Sigma Chemicals Co (St. Louis, Mo.), Fetal bovine serum were purchased from Arrow labs, 96 well flat bottom tissue culture plates were purchased from Tarson.
A431, Colo-205, A549 cell lines were grown as adherent cells in DMEM media supplemented with 10% fetal bovine serum, 100 μg/ml penicillin, 200 μg/ml streptomycin, 2 mM L-glutamine, and culture was maintained in a humidified atmosphere with 5% CO2. Stock solution of 10 mg/ml was prepared for test molecules in DMSO. From the stock, various dilutions were made with sterile water to get required concentration. A431, Colo-205, A549 cell lines were seeded at a density of 1×10^4 cells (cell number was determined by Trypan blue exclusion dye method) per each well in 100 μl of DMEM supplemented with 10% FBS. 12 hrs after seeding, above media was replaced with fresh DMEM supplemented with 10% FBS. Then, 10 μl sample from above stock solutions were added to each well in triplicates which gives final concentration of 100, 50, 25, 10 μg/well. The above cells were incubated for 48 hrs at 37° C. with 5% CO2. After 48 hrs incubation the above media was replaced with 100 μl of fresh DMEM with out FBS and to this 10 μl of MTT (5 mg dissolved in 1 ml of PBS) was added and incubated for 3 hrs at 37° C. with 5% CO2. After 3 hrs of incubation, the above media was removed with multi channel pipette, then 200 μl of DMSO was added to each well and incubated at 37° C. for 15 min. Finally, the plate was read at 570 nm using spectrophotometer (Spectra Max, Molecular devices).
In general terms: Tetrazolium assays rely on reduction of a dye to a coloured formazan, in cell work by metabolically active cells.

Setting [2] is: 10 mg per ml, calculated from maltose released vs respective control.

The structures appear in SMILES notation. Values after ≈ are worked out from the molar mass of the structure shown.

T2 sequence (P53341 whole entry): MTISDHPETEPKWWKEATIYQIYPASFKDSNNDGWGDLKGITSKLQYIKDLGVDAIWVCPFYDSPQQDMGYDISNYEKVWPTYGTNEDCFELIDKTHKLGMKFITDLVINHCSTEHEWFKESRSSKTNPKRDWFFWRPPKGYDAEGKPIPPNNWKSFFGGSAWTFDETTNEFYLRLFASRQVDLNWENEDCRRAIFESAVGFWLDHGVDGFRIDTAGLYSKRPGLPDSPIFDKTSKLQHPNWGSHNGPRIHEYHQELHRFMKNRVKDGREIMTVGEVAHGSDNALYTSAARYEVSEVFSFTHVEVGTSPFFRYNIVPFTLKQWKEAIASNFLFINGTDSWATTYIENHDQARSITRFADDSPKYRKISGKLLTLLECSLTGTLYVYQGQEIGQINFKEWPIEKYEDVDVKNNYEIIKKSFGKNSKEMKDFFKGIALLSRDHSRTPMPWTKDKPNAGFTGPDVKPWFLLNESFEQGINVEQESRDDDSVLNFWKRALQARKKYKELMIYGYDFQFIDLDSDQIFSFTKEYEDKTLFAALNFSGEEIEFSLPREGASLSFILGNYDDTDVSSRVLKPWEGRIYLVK

As usually defined, the inhibition is the change of the read-out against control, counted positive when it falls. One may read the melting point as the temperature, or range, at which the solid turns liquid. A word on the IC50: it is the point on the concentration scale where inhibition reaches its midpoint. Regarding `CC1CCc2c(nc3sc4c(c3c2N)CCC4)C1` (stereo not drawn) [BN-15, 7-Methyl-2,3,6,7,8,9-hexahydro-1H-cyclopenta[4,5]thieno[2,3-b]quinolin-10-amine], the melting point is 263.2 °C. Moreover, in data set [1] (10 mg per ml), the “Alpha amylase inhibitory activity (in words)” value is “strong inhibitory activity” and the Maltose released worked out at 1.179 mg/mL. Besides, the inhibition at 10000 µg/mL (stock) in data set [1] (setting [2]) was 46.7%. On yeast α-glucosidase, the “Yeast α-glucosidase enzyme inhibitory activity (in words)” value is reported as “moderate inhibitory activity”. The half-maximal inhibitory concentration (IC50) with A549 (Lung cancer) was determined as 72.4 µg/mL (≈ 280 µM).

The % Inhibition is the change of the read-out against control, counted positive when it falls. `Nc1c2c(nc3sc4c(c13)CCC4)CCCCCC2` [BN-17, 2,3,6,7,8,9,10,11-Octahydro-1H-cycloocta [b]cyclopenta[4,5]thieno[3,2-e]pyridin-12-amine] displayed a melting point of 256 °C. In data set [1] (10 mg per ml), the “Alpha amylase inhibitory activity (in words)” value is recorded as “strong inhibitory activity” and the Maltose released is 1.028 mg/mL. Further, in data set [1] (setting [2]), the “% Inhibition” value was 53.92%. Further, the “Yeast α Glucosidase Inhibition (Mean ± S.E)” value on yeast α-glucosidase (single concentration screen) amounted to 9.40 ± 4.49%. Besides, the “A549 IC50” value in the data set with A549 (Lung cancer) was found to be 40.7 µg/mL.

In turn, `Nc1c2c(nc3sc4c(c13)CCCCC4)CCC2` [BN-18, 1,2,3,6,7,8,9,10-Octahydrocyclohepta[4,5] thieno[2,3-b]cyclopenta [e]pyridin-11-amine] came in with a melting point of 255 °C. Besides, in data set [1] (10 mg per ml), the Maltose released was 3.972 mg/mL. Further, in data set [1] (setting [2]), the inhibition at 10000 µg/mL (stock) is -16.2%. The Maltose release entry in data set [1] (end of the reaction, vs control maltose release) is given as “more than control”. Moreover, at yeast α-glucosidase, the “Yeast α-glucosidase enzyme inhibitory activity (in words)” value is given as “moderate inhibitory activity”. Further, the half-inhibitory concentration (IC50) in the data set with A549 (Lung cancer) worked out at 39.8 µg/mL (≈ 154 µM).
